According to patent publication US20130172246A1, “INSULIN GLARGINE VERSUS METFORMIN FOR THE FIRST-LINE TREATMENT OF EARLY TYPE-2 DIABETES” (priority 2011, published 2013):

Test system: type 2 diabetes patients
Assay: Laboratory analyses in the clinical trial: HbA1c, plasma glucose, lipids, hsCRP
Type: in vivo, human
Conditions: for HbA1c level at end of study: after 36 weeks of treatment, GLA vs. MET n.s.; for HbA1c level at start of study: baseline value of the 'x to y' pair; for Triglycerides - change / HDL - change / HbA1c - change / LDL - change / Plasma glucose - change, 2 h after test meal / Plasma glucose - change, Fasting / Total chol. - change / hsCRP - change / Triglycerides - visit 8 / HDL - visit 8 / HbA1c - visit 8 / LDL - visit 8 / Plasma glucose - visit 8, 2 h after test meal / Plasma glucose - visit 8, Fasting / Total chol. - visit 8 / hsCRP - 8th visit: per protocol, mean (SD); for Triglycerides - change / HDL - change / HbA1c - change / LDL - change / Plasma glucose - change, 2 h after test meal / Plasma glucose - change, Fasting / Total chol. - change / hsCRP - change: change visit 1 to visit 8; for HDL - change / HbA1c - change / LDL - change / Plasma glucose - change, 2 h after test meal / Plasma glucose - change, Fasting / Total chol. - change / hsCRP - change / HDL - visit 8 / HbA1c - visit 8 / LDL - visit 8 / Plasma glucose - visit 8, 2 h after test meal / Plasma glucose - visit 8, Fasting / Total chol. - visit 8 / hsCRP - 8th visit: unit as in Table 4; for Triglycerides - visit 8 / HDL - visit 8 / HbA1c - visit 8 / LDL - visit 8 / Plasma glucose - visit 8, 2 h after test meal / Plasma glucose - visit 8, Fasting / Total chol. - visit 8 / hsCRP - 8th visit: week 36; for reduction in the FPG level (Δ): start to end of study (36 weeks), GLA vs. MET p<0.001
Experimental: Test meal: On the morning of the 2nd day of the CGM, there is a standardized test meal in the trial center. This test meal (TM) consists of 95 g of whole-wheat bread, 20 g of margarine, 25 g of fruit preserves, 25 g of cheese, 200 ml of orange juice, 200 ml of milk mix with banana, strawberry or cocoa with a total of 560 Kcal. Blood is taken from the patient prior to the TM (after night-time fasting period of at least 8 hours). […] From the 1st bite, the time is measured, and after 2 h have elapsed, a 2nd blood collection is performed. During the TM and during the two hours thereafter, the patient should move as little as possible so as not to falsify the monitoring.
Fasting blood is collected between 7 and 9 o'clock in the morning when the patient turns up at the center.
Laboratory analyses: The blood samples for the clinical laboratory tests are analyzed in the central laboratory and the local laboratories according to standardized conditions. The central laboratory and the local laboratories provide on request corresponding documentation (e.g., normal value tables, round-robin test certificates in accordance with RiLiBÄK (Guidelines of the German Medical Association)) for the trial master file. The central laboratory is responsible for the collection, transport and analysis of the blood samples and instructs the trial center on sample management.
The patients were treated with either metformin (MET, 1000 mg b.i.d. (n=3)) or insulin glargine (GLA) q.d. just before bedtime (n=3). […] At the start and end of the study, the HbA1c level and the plasma glucose, proinsulin and C-peptide concentrations were determined. […] All the patients received a standardized test meal on the second day of the continuous glucose monitoring for comparison of the interindividual postprandial (pp) glucose excursions.

| Compound | HbA1c level at end of study [%] | HbA1c level at start of study [%] | Triglycerides - change | HDL - change | HbA1c - change | LDL - change | Plasma glucose - change, 2 h after test meal | Plasma glucose - change, Fasting | Total chol. - change | hsCRP - change | Triglycerides - visit 8 | HDL - visit 8 | HbA1c - visit 8 | LDL - visit 8 | Plasma glucose - visit 8, 2 h after test meal | Plasma glucose - visit 8, Fasting | Total chol. - visit 8 | hsCRP - 8th visit | reduction in the FPG level (Δ) [mmol/L] | control of the fasting glucose level and of the overall glycemic situation (early treatment, compared to standard treatment with MET) |
| --- | --- | --- | --- | --- | --- | --- | --- | --- | --- | --- | --- | --- | --- | --- | --- | --- | --- | --- | --- | --- |
| CN(C)C(=N)N=C(N)N [Metformin] | 6.3 | 6.9 | −0.2 (1.1) mmol/l | 0.1 (0.2) mmol/l | −0.6 (0.4) % | −0.03 (0.6) mmol/l | −1.6 (2.5) mmol/l | −1.4 (1.5) mmol/l | −0.02 (0.7) mmol/l | −0.2 (2.2) mg/l | 1.9 (0.8) mmol/l | 1.3 (0.4) mmol/l | 6.3 (0.3) % | 3.1 (0.9) mmol/l | 8.4 (2.1) mmol/l | 7.2 (1.0) mmol/l | 5.3 (1.0) mmol/l | 3.1 (5.2) mg/l | 1.4 ± 1.5 | – |
| Insulin glargine | 6.4 | 7.2 | −0.2 (1.8) mmol/l | 0.1 (0.2) mmol/l | −0.8 (0.7) % | −0.1 (0.7) mmol/l | −2.8 (3.2) mmol/l | −3.1 (2.5) mmol/l | −0.04 (0.8) mmol/l | 0.1 (3.0) mg/l | 2.2 (2.0) mmol/l | 1.3 (0.3) mmol/l | 6.4 (0.4) % | 3.1 (0.8) mmol/l | 8.3 (2.5) mmol/l | 6.1 (1.1) mmol/l | 5.2 (1.0) mmol/l | 3.1 (2.9) mg/l | 3.1 ± 2.5 | more effective control |
